SMILES strings stand for the structures. Entries after “also recorded” stand apart in the source; their conditions may differ.

The subject of test [1] is Angptl4. As to conditions: bEnd.3 cells, FIG. 1.
The test system of a further test is bEnd.3 tumors. Briefly: RNAseq analysis of R-propranolol vs vehicle treated tumors. In kind it is in vivo, mice. The source says:
In order to gain an understanding of the mechanism of action of R-propranolol in vivo, vehicle and R-propranolol treated tumors were subjected to RNA seq analysis. […] The APOA1 gene expresses a protein called apolipoprotein A-I (apoA-I). ApoA-I is a component of high-density lipoprotein (HDL) which transports cholesterol and phospholipids through the bloodstream for excretion by the liver beneficial for cardiovascular health.

Another test deals with bEnd.3 hemangioma cells. Briefly: Seahorse analysis of respiration in bEnd.3 cells. The following applies: for basal respiration / spare respiratory capacity: FIG. 5B; for maximal respiration: compared to vehicle control.
Test [2] has as its system Angptl4. Briefly: Western blot analysis of Angptl4 in HemSC cells.
In test [3] the test system is Angptl4. The test is described as follows: Gene array of treated hemangioma stem cells (HemSC). It is filed as cell-based, human. The following applies: for Angptl4 gene regulation on gene array: HemSC cells vs vehicle control; for effectiveness in downregulating Angptl4 compared with S-propranolol: hemangioma stem cells.
Test [4] has as its system Angptl4. The test is described as follows: Downregulation of VEGF/Angptl4 by propranolol and its isomers (summary statements). In kind it is cell-based.
A further test relates to bEnd.3 hemangioma. The test is described as follows: bEnd.3 hemangioma xenograft growth in nude mice. In kind it is in vivo. The following applies: p=0.014. The method, then: The xenograft model was developed and approved by the Institutional Animal Care and Use Committee of Emory University. bEnd.3 cell suspension in growth medium was inoculated in the right flank of athymic Nu/Nu nude male mice purchased from the Charles River Laboratories at 2.5×10^5 cells/mouse (n=5 per group). Control or R-propranolol was administered intraperitoneally five times a week at 3.5 mg/kg/day. R-propranolol treatment was initiated on the second day after the tumor cell injection.
To elucidate the signaling cascade independent of beta blockade in hemangioma formation, tie-2-deficient mouse hemangioma cell line, bEnd.3 was xenografted and treated with or without R-propranolol, isomer deficient in beta blockade activity.

A further test has as its system Angiopoietin-2 (Ang-2). The test is described as follows: Ang-2 levels in infants receiving propranolol for hemangioma of infancy. In kind it is in vivo, human. As to conditions: saliva of infants with hemangiomas. The source says: (§1) Genetic studies of hemangiomas have not elucidated a common genetic cause, as opposed to other vascular lesions, such as vascular malformations and angiosarcomas, in which genetic mutations have been found. Cytokines have been found in hemangiomas of infancy, including vascular endothelial growth factor (VEGF) and Angiopoietin-2 (Ang-2). The role of these factors in hemangiomas are not fully understood, especially given that Ang-2 can serve as a growth factor or mediate endothelial apoptosis depending on the context. A series of infants were studied who received propranolol for treatment of hemangioma of infancy.

In the next test the test system is VEGF. The test is described as follows: VEGF levels in infants receiving propranolol for hemangioma of infancy. In kind it is in vivo, human. The following applies: saliva of infants with hemangiomas, hydrochloride.
Description: as §1

For the next test, the system named is hemangioma of infancy. As to conditions: infant who received propranolol for cardiac disease; cited from earlier work.
Where [5] appears, read: RNAseq treated vs vehicle tumors.

For `CC(C)NC[C@@H](O)COc1cccc2ccccc12` [R-propranolol, (R)-(+)-1-(isopropylamino)-3-(naphthalen-1-yloxy)propan-2-ol], the Angptl4 protein expression result in the test with Angptl4 [1] is “markedly reduced”. In the test on bEnd.3 tumors (setting [5]), the APOA1 expression result is recorded as “induced; also recorded: upregulated”, the BHMT expression entry is “most highly regulated gene; also recorded: upregulated; also recorded: most upregulated”, the Egr-1 expression result is given as “elevated; also recorded: upregulated” and the “choline metabolism pathway (KEGG analysis)” value was “the pathway affected; also recorded: highly affected”. In the test on bEnd.3 tumors (RNAseq, FIG. 4), the Eno4 expression result was “downregulated”, the Faim2 expression result was “downregulated”, the Hunk expression result is reported as “downregulated” and the “number of RNA transcripts significantly downregulated” value is recorded as “Seven”. Moreover, the “number of RNA transcripts upregulated” value in the test with bEnd.3 tumors (RNAseq, FIG. 4) is on record as “seventeen”. For the same molecule, in the test with bEnd.3 hemangioma cells (FIG. 5A), the “respiration compared with S-propranolol” value is recorded as “stronger respiration” and the maximal respiration entry is on record as “substantially increased”. Moreover, in the test on bEnd.3 hemangioma cells, the basal respiration result is listed as “increased” and the spare respiratory capacity entry is “increased”. Besides, the “Angptl4 expression, Western blot” value with Angptl4 [2] (FIG. 1) is “reduced expression of Angptl4”. For the same molecule, in the test with Angptl4 [2] (FIG. 1, listed as R-isomer), the “Angptl4 expression, Western blot” value was “suppressed Angptl4”. For the same molecule, in the test on Angptl4 [3], the “Angptl4 gene regulation on gene array” value is on record as “downregulated; also recorded: most regulated gene” and the “effectiveness in downregulating Angptl4 compared with S-propranolol” value was “far more effective”. In the test with Angptl4 [3] (listed as R(+)-propranolol), the “effectiveness in downregulating Angptl4 compared with S-propranolol” value is on record as “More Effective”. The “activity against Angptl4 compared with S-propranolol” value in the test with Angptl4 [4] (endothelial cells) is “greater downregulation; also recorded: more active”. Further, the tumor volume with bEnd.3 hemangioma (3.5 mg/kg/day intraperitoneally five times a week, control 593.32, n=5 per group) is on record as 37.60 mm3. The “effect on bEnd.3 hemangioma tumor growth in vivo” value in the test with bEnd.3 hemangioma (xenograft in mice, within two weeks of tumor development) is given as “active in vivo; also recorded: significant tumor volume reduction; also recorded: significantly reduced the tumor volume; also recorded: inhibited the growth; also recorded: significant inhibition of tumor growth”.
Turning to `CC(C)NCC(O)COc1cccc2ccccc12` (stereo not drawn) [S-propranolol, reference compound], the Angptl4 protein expression result with Angptl4 [1] was “slightly elevated”. Further, in the test on bEnd.3 hemangioma cells, the basal respiration entry was “increased” and the spare respiratory capacity entry is on record as “increased”. In addition, the maximal respiration result in the test with bEnd.3 hemangioma cells (FIG. 5A) is “substantially increased”. For the same molecule, the “Angptl4 expression, Western blot” value in the test with Angptl4 [2] (FIG. 1) is on record as “not”. In addition, the “Angptl4 expression, Western blot” value with Angptl4 [2] (FIG. 1, listed as S isomer) is listed as “had no effect”. Besides, in the test on Angptl4 [3], the “Angptl4 gene regulation on gene array” value is on record as “downregulated; also recorded: most regulated gene”.
Turning to `CN(C)c1ccc(C(=C2C=CC(=[N+](C)C)C=C2)c2ccc(N(C)C)cc2)cc1` [gentian violet], the Angptl4 protein expression entry in the test on Angptl4 [1] was “much reduced”. Further, the “Angptl4 expression, Western blot” value is “suppressed Angptl4” in the test on Angptl4 [2] (FIG. 1) and “downregulated Angptl4” in the test with Angptl4 [2] (FIG. 1, listed as Gentian violet). Moreover, in the test on Angptl4 [3], the “Angptl4 gene regulation on gene array” value is reported as “downregulated; also recorded: most regulated gene”.
Turning to `CC(C)NCC(O)COc1cccc2ccccc12.Cl` (racemic) [propranolol, (±)-1-[(1-methylethyl)amino]-3-(1-naphthalenyloxy)-2-propanol hydrochloride], the Ang-2 levels entry in the test with Angiopoietin-2 (Ang-2) is on record as “not”. The VEGF levels entry in the test on VEGF was “reduced”; with VEGF (listed as Propranolol), “downregulates”. The “N4RA1 (Nur77) expression” value in the test on bEnd.3 tumors (setting [5]) is “upregulated”. Moreover, the VEGF/Angplt4 downregulation entry with Angptl4 [4] is “coordinately downregulates”. In addition, the “hemangioma of infancy, clinical course” value in the test with hemangioma of infancy was “regression”.

These data come from patent publication US20210346319A1, “Pharmaceutical Compositions of R-(+)-Propranolol in Enantiomeric Excess and Therapeutic Uses Related Thereto” (Emory University, priority 2018, published 2021).
